Among the data in PubChem BioAssay (NCI) are TGI values, retold here.

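Assay format: 96-well plates, 48-hour exposure. The concentration for full growth arrest is given as TGI.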

Test systems include ACHN renal; CAKI-1 renal; CCRF-CEM leukemia; COLO 205 colon; DU-145 prostate; EKVX NSCLC; HL-60(TB) leukemia; HT29 colon; KM12 colon; LOX IMVI melanoma; MCF7 breast; MDA-MB-435; MOLT-4 leukemia; NCI-H226 lung; OVCAR-5 ovarian; PC-3 prostate; SF-268 CNS; U251 CNS; UACC-257 melanoma.
Experiment in all cases: growth of human tumour cells (NCI), 48 h

In the case of `NS(=O)(=O)c1ccc(NC(=O)N/N=C/c2ccccc2[N+](=O)[O-])cc1`, the TGI with ACHN renal, with CAKI-1 renal, with CCRF-CEM leukemia, in the experiment with COLO 205 colon, in the experiment with DU-145 prostate and with EKVX NSCLC was > 100 µM throughout. The TGI is > 100 µM in the experiment with HL-60(TB) leukemia; > 100 µM with HT29 colon; > 100 µM in the experiment with KM12 colon; > 100 µM in the experiment on LOX IMVI melanoma; > 100 µM in the experiment with MCF7 breast; 42.7 µM with MDA-MB-435. The TGI with MOLT-4 leukemia, in the experiment with NCI-H226 lung, in the experiment on OVCAR-5 ovarian, with PC-3 prostate, in the experiment with SF-268 CNS and in the experiment with U251 CNS was > 100 µM in each case. For the same compound, in the experiment on UACC-257 melanoma, the TGI was > 100 µM.
`Cc1ncn(-c2ccccc2O)c1C`: the TGI in the experiment on ACHN renal, with CAKI-1 renal, with CCRF-CEM leukemia, in the experiment with COLO 205 colon, in the experiment on DU-145 prostate and in the experiment on EKVX NSCLC was > 100 µM in each case. The TGI with HL-60(TB) leukemia, in the experiment on HT29 colon, with KM12 colon, with LOX IMVI melanoma, in the experiment on MCF7 breast and in the experiment with MDA-MB-435 was > 100 µM throughout. For the same compound, the TGI in the experiment on MOLT-4 leukemia, with NCI-H226 lung, in the experiment with OVCAR-5 ovarian, in the experiment with PC-3 prostate, with SF-268 CNS and in the experiment with U251 CNS was > 100 µM in each case. Besides, in the experiment with UACC-257 melanoma, the TGI was > 100 µM.
For `COc1ccc(/C=C2\N=C(N3CCCC(CO)C3)NC2=O)cc1` (stereo not drawn), the TGI with ACHN renal, with CAKI-1 renal, in the experiment on CCRF-CEM leukemia, in the experiment with COLO 205 colon, in the experiment on DU-145 prostate and in the experiment on EKVX NSCLC was > 100 µM in each case. In addition, the TGI with HL-60(TB) leukemia, in the experiment on HT29 colon, in the experiment on KM12 colon, in the experiment with LOX IMVI melanoma, in the experiment with MCF7 breast and with MDA-MB-435 was > 100 µM in each case. Also, the TGI with MOLT-4 leukemia, in the experiment on NCI-H226 lung, in the experiment on OVCAR-5 ovarian, in the experiment on PC-3 prostate, in the experiment on SF-268 CNS and in the experiment with U251 CNS was > 100 µM each time. Further, in the experiment on UACC-257 melanoma, the TGI is > 100 µM.
For the compound `O=C(Nc1ccccc1)N(CCN(Cc1ccccc1)C(=O)Nc1ccccc1)CCN(Nc1ccccc1)C(=O)Nc1ccccc1`, the TGI in the experiment with ACHN renal, in the experiment on CAKI-1 renal, in the experiment on CCRF-CEM leukemia, in the experiment with COLO 205 colon, with DU-145 prostate and with EKVX NSCLC was > 100 µM throughout. Further, the TGI with HL-60(TB) leukemia, with HT29 colon, in the experiment on KM12 colon, with LOX IMVI melanoma, in the experiment with MCF7 breast and in the experiment on MDA-MB-435 was > 100 µM throughout. The TGI in the experiment on MOLT-4 leukemia, in the experiment with NCI-H226 lung, in the experiment on OVCAR-5 ovarian, with PC-3 prostate, with SF-268 CNS and in the experiment with U251 CNS was > 100 µM each time. The TGI in the experiment with UACC-257 melanoma was > 100 µM.
In the case of `CCOC(=O)CNC(=O)C(CCC(=O)N(C)O)NC(=O)CCC(N)C(=O)O` (stereo not drawn), the TGI in the experiment with ACHN renal, in the experiment with CAKI-1 renal, in the experiment on CCRF-CEM leukemia, in the experiment on COLO 205 colon, with DU-145 prostate and in the experiment with EKVX NSCLC was > 100 µM throughout. For the same compound, the TGI with HL-60(TB) leukemia, in the experiment on HT29 colon, in the experiment on KM12 colon, in the experiment with LOX IMVI melanoma, in the experiment with MCF7 breast and in the experiment on MDA-MB-435 was > 100 µM each time. Also, the TGI in the experiment on MOLT-4 leukemia, in the experiment with NCI-H226 lung, in the experiment with OVCAR-5 ovarian, with PC-3 prostate, with SF-268 CNS and in the experiment on U251 CNS was > 100 µM in each case. The TGI in the experiment with UACC-257 melanoma is > 100 µM.
On to `COc1ccc(/C=N\N(C)Cc2cccc3ccsc23)cc1`, for which the TGI in the experiment with ACHN renal, with CAKI-1 renal, with CCRF-CEM leukemia, with COLO 205 colon, in the experiment on DU-145 prostate and in the experiment on EKVX NSCLC was > 100 µM throughout. Besides, the TGI in the experiment on HL-60(TB) leukemia, in the experiment with HT29 colon, with KM12 colon, in the experiment with LOX IMVI melanoma, in the experiment with MCF7 breast and with MDA-MB-435 was > 100 µM in each case. In addition, the TGI in the experiment with MOLT-4 leukemia, in the experiment on NCI-H226 lung, with OVCAR-5 ovarian, with PC-3 prostate, in the experiment with SF-268 CNS and in the experiment on U251 CNS was > 100 µM in each case. Besides, the TGI in the experiment with UACC-257 melanoma was > 100 µM.
For `O=c1[nH]c(Nc2ccc(Br)c(C(F)(F)F)c2)nc2nc[nH]c12`, the TGI is > 100 µM with ACHN renal; > 100 µM in the experiment with CAKI-1 renal; > 100 µM in the experiment on CCRF-CEM leukemia; 41 µM with COLO 205 colon; > 100 µM in the experiment on DU-145 prostate; > 100 µM in the experiment with EKVX NSCLC. Further, the TGI with HL-60(TB) leukemia, in the experiment on HT29 colon, with KM12 colon, in the experiment with LOX IMVI melanoma, in the experiment on MCF7 breast and in the experiment on MDA-MB-435 was > 100 µM in each case. Further, the TGI in the experiment on MOLT-4 leukemia is 88.5 µM; in the experiment with NCI-H226 lung it was > 100 µM; with OVCAR-5 ovarian, > 100 µM; in the experiment on PC-3 prostate, > 100 µM; with SF-268 CNS, > 100 µM; in the experiment with U251 CNS, > 100 µM. Further, the TGI in the experiment on UACC-257 melanoma was > 100 µM.
